Where two headings read alike, the source gives them in different places.
Target: T1, Human BCL-XL protein (N-terminal HiBiT tagged BCL-XL in HT1080 cells) (Homo sapiens, UniProt Q07817)
T1 construct: expressed in transfected cells; host or cells: HT-1080 (ATCC CCL-121), stably transduced with lentivirus pLV-UBC-N-HiBiT-BCL-XL-PGK-puro and selected with puromycin
Assay: HiBiT based degradation assay
Assay type: cell-based
Settings: HT1080 cells expressing HiBiT-BCL-XL; for Ymin (6 h) / Ymin (24 h): BCL-XL degradation normalized with DMSO control; for DC50: BCL-XL degradation
How it was run: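 HT1080 cells stably transduced by lentivirus with N-terminally HiBiT-tagged human BCL-XL and kept under 1 μg/mL puromycin selection were seeded at three thousand cells per well in 40 μL RPMI 1640 into 384-well plates pre-spotted with compounds across a concentration range. Luminescence was read on a PHERAstar FSX, normalized to DMSO, and fitted with a four-parameter logistic model.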

T1 sequence (Q07817 whole entry): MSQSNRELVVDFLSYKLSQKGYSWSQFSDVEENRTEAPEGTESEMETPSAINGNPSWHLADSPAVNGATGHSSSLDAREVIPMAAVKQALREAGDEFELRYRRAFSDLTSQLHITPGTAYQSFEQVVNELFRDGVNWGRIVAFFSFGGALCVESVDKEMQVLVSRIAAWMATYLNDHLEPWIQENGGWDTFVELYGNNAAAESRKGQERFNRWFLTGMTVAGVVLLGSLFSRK

Row | SMILES | Ymin (6 h) | Ymin (24 h) | DC50 (6 h, read-out: EC50 (6 h)) | DC50 (24 h, read-out: EC50 (24 h))
1 | Cc1cc(OCCCN2C[C@@H](C)N(CC(=O)N3CCN(c4cccc5c(C6CCC(=O)NC6=O)nn(C)c45)CC3)[C@@H](C)C2)ccc1-c1ccc(N2CCc3cccc(C(=O)Nc4nc5ccccc5s4)c3C2)nc1C(=O)O (stereo partly drawn) [Compound 183a, 6-[8-(1,3-benzothiazol-2-ylcarbamoyl)-3,4-dihydro-1H-isoquinolin-2-yl]-3-[4-[3-[(3S,5R)-4-[2-[4-[3-(2,6-dioxo-3-piperidyl)-1-methyl-indazol-7-yl]piperazin-1-yl]-2-oxo-ethyl]-3,5-dimethyl-piperazin-1-yl]propoxy]-2-methyl-phenyl]pyridine-2-carboxylic acid] | B (50% ≤ Ymin < 70%) | A (Ymin < 50%) | < 100 nM | < 100 nM
2 | Cc1cc(OCCCC2CCN(CC(=O)Nc3ccc4c(C5CCC(=O)NC5=O)nn(C)c4c3)CC2)ccc1-c1ccc(N2CCc3cccc(C(=O)Nc4nc5ccccc5s4)c3C2)nc1C(=O)O (stereo not drawn) [Compound 184, 6-[8-(1,3-benzothiazol-2-ylcarbamoyl)-3,4-dihydro-1H-isoquinolin-2-yl]-3-[4-[3-[1-[2-[[3-(2,6-dioxo-3-piperidyl)-1-methyl-indazol-6-yl]amino]-2-oxo-ethyl]-4-piperidyl]propoxy]-2-methyl-phenyl]pyridine-2-carboxylic acid] | A (Ymin < 50%) | A (Ymin < 50%) | < 100 nM | < 100 nM
3 | Cc1c(OCC(F)(F)CN2C[C@@H](C)N(CC(=O)N3CCN(c4ccc5c(C6CCC(=O)NC6=O)nn(C)c5c4)CC3)[C@@H](C)C2)cccc1-c1ccc(N2CCc3cccc(C(=O)Nc4nc5ccccc5s4)c3C2)nc1C(=O)O (stereo partly drawn) [Compound 185a, 6-[8-(1,3-benzothiazol-2-ylcarbamoyl)-3,4-dihydro-1H-isoquinolin-2-yl]-3-[3-[3-[(3R,5S)-4-[2-[4-[3-(2,6-dioxo-3-piperidyl)-1-methyl-indazol-6-yl]piperazin-1-yl]-2-oxo-ethyl]-3,5-dimethyl-piperazin-1-yl]-2,2-difluoro-propoxy]-2-methyl-phenyl]pyridine-2-carboxylic acid] |  | A (Ymin < 50%) |  | < 100 nM
4 | Cc1c(OCCCC[C@@H]2CCCN(CC(=O)Nc3cccc4c(C5CCC(=O)NC5=O)nn(C)c34)C2)cccc1-c1ccc(N2CCc3cccc(C(=O)Nc4nc5ccccc5s4)c3C2)nc1C(=O)O (stereo partly drawn) [Compound 186a, 6-[8-(1,3-benzothiazol-2-ylcarbamoyl)-3,4-dihydro-1H-isoquinolin-2-yl]-3-[3-[4-[(3R)-1-[2-[[3-(2,6-dioxo-3-piperidyl)-1-methyl-indazol-7-yl]amino]-2-oxo-ethyl]-3-piperidyl]butoxy]-2-methyl-phenyl]pyridine-2-carboxylic acid] |  | B (50% ≤ Ymin < 70%) |  | < 100 nM
5 | Cc1c(OCCCC[C@H]2CCCN(CC(=O)Nc3cccc4c(C5CCC(=O)NC5=O)nn(C)c34)C2)cccc1-c1ccc(N2CCc3cccc(C(=O)Nc4nc5ccccc5s4)c3C2)nc1C(=O)O (stereo partly drawn) [Compound 186b, 6-[8-(1,3-benzothiazol-2-ylcarbamoyl)-3,4-dihydro-1H-isoquinolin-2-yl]-3-[3-[4-[(3S)-1-[2-[[3-(2,6-dioxo-3-piperidyl)-1-methyl-indazol-7-yl]amino]-2-oxo-ethyl]-3-piperidyl]butoxy]-2-methyl-phenyl]pyridine-2-carboxylic acid] |  | C (Ymin ≥ 70%) |  | 1000 to 10000 nM
6 | Cc1c(OCCCN2CCN(CC(=O)Nc3ccc4c(C5CCC(=O)NC5=O)nn(C)c4c3)[C@H](C(F)(F)F)C2)cccc1-c1ccc(N2CCc3cccc(C(=O)Nc4nc5ccccc5s4)c3C2)nc1C(=O)O (stereo partly drawn) [Compound 187a, 6-(8-(benzo[d]thiazol-2-ylcarbamoyl)-3,4-dihydroisoquinolin-2(1H)-yl)-3-(3-(3-((3S)-4-(2-((3-(2,6-dioxopiperidin-3-yl)-1-methyl-1H-indazol-6-yl)amino)-2-oxoethyl)-3-(trifluoromethyl)piperazin-1-yl)propoxy)-2-methylphenyl)picolinic acid] | B (50% ≤ Ymin < 70%) | B (50% ≤ Ymin < 70%) | 100 to 1000 nM | < 100 nM
7 | Cc1c(OCCCN2CCN(CC(=O)Nc3ccc4c(C5CCC(=O)NC5=O)nn(C)c4c3)[C@@H](C(F)(F)F)C2)cccc1-c1ccc(N2CCc3cccc(C(=O)Nc4nc5ccccc5s4)c3C2)nc1C(=O)O (stereo partly drawn) [Compound 187b, 6-(8-(benzo[d]thiazol-2-ylcarbamoyl)-3,4-dihydroisoquinolin-2(1H)-yl)-3-(3-(3-((3R)-4-(2-((3-(2,6-dioxopiperidin-3-yl)-1-methyl-1H-indazol-6-yl)amino)-2-oxoethyl)-3-(trifluoromethyl)piperazin-1-yl)propoxy)-2-methylphenyl)picolinic acid] | B (50% ≤ Ymin < 70%) | A (Ymin < 50%) | < 100 nM | < 100 nM
8 | Cc1c(OCC2CC3(CCN(CCN4CCN(c5cccc6c(C7CCC(=O)NC7=O)nn(C)c56)CC4)CC3)C2)cccc1-c1ccc(N2CCc3cccc(C(=O)Nc4nc5ccccc5s4)c3C2)nc1C(=O)O (stereo not drawn) [Compound 188, 6-[8-(1,3-benzothiazol-2-ylcarbamoyl)-3,4-dihydro-1H-isoquinolin-2-yl]-3-[3-[[7-[2-[4-[3-(2,6-dioxo-3-piperidyl)-1-methyl-indazol-7-yl]piperazin-1-yl]ethyl]-7-azaspiro[3.5]nonan-2-yl]methoxy]-2-methyl-phenyl]pyridine-2-carboxylic acid] |  | A (Ymin < 50%) |  | < 100 nM
9 | Cc1c(OCCCN2CCN(CC3CCN(c4ccc5c(C6CCC(=O)NC6=O)nn(C)c5c4)CC3)CC2)cccc1-c1ccc(N2CCc3cccc(C(=O)Nc4nc5ccccc5s4)c3C2)nc1C(=O)O (stereo not drawn) [Compound 189, 6-(8-(benzo[d]thiazol-2-ylcarbamoyl)-3,4-dihydroisoquinolin-2(1H)-yl)-3-(3-(3-(4-((1-(3-(2,6-dioxopiperidin-3-yl)-1-methyl-1H-indazol-6-yl)piperidin-4-yl)methyl)piperazin-1-yl)propoxy)-2-methylphenyl)picolinic acid] |  | A (Ymin < 50%) |  | < 100 nM
10 | Cc1c(Oc2ccc(CCCC(=O)N3CCN(c4cccc5c(C6CCC(=O)NC6=O)nn(C)c45)CC3)cc2)cccc1-c1ccc(N2CCc3cccc(C(=O)Nc4nc5ccccc5s4)c3C2)nc1C(=O)O (stereo not drawn) [Compound 191, 6-(8-(benzo[d]thiazol-2-ylcarbamoyl)-3,4-dihydroisoquinolin-2(1H)-yl)-3-(3-(4-(4-(4-(3-(2,6-dioxopiperidin-3-yl)-1-methyl-1H-indazol-7-yl)piperazin-1-yl)-4-oxobutyl)phenoxy)-2-methylphenyl)picolinic acid] |  | B (50% ≤ Ymin < 70%) |  | < 100 nM
11 | Cc1c(OCCCC2CCN(CCC3CCN(c4ccc5c(C6CCC(=O)NC6=O)nn(C)c5c4)CC3)CC2)cccc1-c1ccc(N2CCc3cccc(C(=O)Nc4nc5ccccc5s4)c3C2)nc1C(=O)O (stereo not drawn) [Compound 192, 6-(8-(benzo[d]thiazol-2-ylcarbamoyl)-3,4-dihydroisoquinolin-2(1H)-yl)-3-(3-(3-(1-(2-(1-(3-(2,6-dioxopiperidin-3-yl)-1-methyl-1H-indazol-6-yl)piperidin-4-yl)ethyl)piperidin-4-yl)propoxy)-2-methylphenyl)picolinic acid] |  | A (Ymin < 50%) |  | < 100 nM
12 | Cc1c(OCCC[C@@H]2CCN(CC(=O)Nc3ccc4c(C5CCC(=O)NC5=O)nn(C)c4c3)CC2(F)F)cccc1-c1ccc(N2CCc3cccc(C(=O)Nc4nc5ccccc5s4)c3C2)nc1C(=O)O (stereo partly drawn) [Compound 193a, 6-(8-(benzo[d]thiazol-2-ylcarbamoyl)-3,4-dihydroisoquinolin-2(1H)-yl)-3-(3-(3-((4R)-1-(2-((3-(2,6-dioxopiperidin-3-yl)-1-methyl-1H-indazol-6-yl)amino)-2-oxoethyl)-3,3-difluoropiperidin-4-yl)propoxy)-2-methylphenyl)picolinic acid] |  | B (50% ≤ Ymin < 70%) |  | 100 to 1000 nM
13 | Cc1c(OCCC[C@H]2CCN(CC(=O)Nc3ccc4c(C5CCC(=O)NC5=O)nn(C)c4c3)CC2(F)F)cccc1-c1ccc(N2CCc3cccc(C(=O)Nc4nc5ccccc5s4)c3C2)nc1C(=O)O (stereo partly drawn) [Compound 193b] |  | B (50% ≤ Ymin < 70%) |  | 100 to 1000 nM
14 | Cc1c(OCCOC2CCN(CC(=O)Nc3cccc4c(C5CCC(=O)NC5=O)nn(C)c34)CC2)cccc1-c1ccc(N2CCc3cccc(C(=O)Nc4nc5ccccc5s4)c3C2)nc1C(=O)O (stereo not drawn) [Compound 194, 6-[8-(1,3-benzothiazol-2-ylcarbamoyl)-3,4-dihydro-1H-isoquinolin-2-yl]-3-[3-[2-[[1-[2-[[3-(2,6-dioxo-3-piperidyl)-1-methyl-indazol-7-yl]amino]-2-oxo-ethyl]-4-piperidyl]oxy]ethoxy]-2-methyl-phenyl]pyridine-2-carboxylic acid] | B (50% ≤ Ymin < 70%) | B (50% ≤ Ymin < 70%) | 100 to 1000 nM | 100 to 1000 nM
15 | Cc1c(Oc2cccc(CCCN3CCN(c4ccc5c(C6CCC(=O)NC6=O)nn(C)c5c4)CC3)c2)cccc1-c1ccc(N2CCc3cccc(C(=O)Nc4nc5ccccc5s4)c3C2)nc1C(=O)O (stereo not drawn) [Compound 195, 6-[8-(1,3-benzothiazol-2-ylcarbamoyl)-3,4-dihydro-1H-isoquinolin-2-yl]-3-[3-[3-[3-[4-[3-(2,6-dioxo-3-piperidyl)-1-methyl-indazol-6-yl]piperazin-1-yl]propyl]phenoxy]-2-methyl-phenyl]pyridine-2-carboxylic acid] | C (Ymin ≥ 70%) | B (50% ≤ Ymin < 70%) | < 100 nM | < 100 nM

Source: patent US20240238423A9, “TETRAHYDROISOQUINOLINE HETEROBIFUNCTIONAL BCL-XL DEGRADERS” (Treeline Biosciences, Inc., priority 2022, published 2024)
